We go through 1 compound from patent publication US10071976B2, “Small molecule fatty acid synthase inhibitors” (Sanford Burnham Prebys Medical Discovery Institute, priority 2014, dated 2018).

SMILES strings stand for the structures. “And” between values parts separate entries of the source, which are not always exact repeats. Equal values may be shown once.

The subject of data set [1] is other serine hydrolases in the lysate. Briefly: Competition with activity-based probe FP-PEG-TAMRA in PC-3 whole cell lysate: other serine hydrolases. In kind it is binding, human. The conditions noted are these: PC-3 lysate, 20 μM final, pH 7.8. The method, then: (§1) Studies were conducted to determine the selectivity of compound 16 for FASN over other human thioesterases. The ability of the compounds to bind the FASN holoenzyme was tested by assessing their ability to compete for the binding of an activity-based probe that covalently attaches to the active site of the FASN thioesterase. Thioesterases are members of the serine hydrolase family, which also includes a number of other types of enzymes including proteases, dipeptidyl peptidases, epoxide hydrolases, etc. To help assess the selectivity of compound 16, an activity-based probe polyethyleneglycol-6-carboxytetramethyl-rhodamine (FP-PEG-TAMRA) that binds covalently to the catalytic serine of all serine hydrolases was used. These studies were done by assessing the ability of compound 16 to compete for the binding of the activity-based probe in whole cell lysates. Several analogs of compound 16 were tested in this assay using lysates of the prostate tumor line (PC3), which expresses FASN, along with numerous other serine hydrolases. The PC-3 lysate was incubated with 8 different FASN inhibitors, including compounds 1, 16 and 97. Then the activity-based probe (FP-PEG-TAMRA) was added to each sample to label the serine hydrolases in the lysate.

The next data set concerns the target FASN-TE (Homo sapiens, UniProt P49327). The data set is described as follows: In-vitro biochemical assay measuring FAS-TE inhibition (OMFH substrate, fluorescence). As for the experimental part: Min wells: Substrate+No enzyme+DMSO, Max wells: Substrate+Enzyme+DMSO, Sample wells: Substrate+Enzyme+Test compounds, Reference compound: Orlistat (make a fresh 10 mM stock in DMSO each time). 384-well black, low-volume plate (Greiner #784076)
Assay Protocol: • 1) ECHO transfer 160 nL of 125× Compound (or DMSO for control wells) per well. • 2) For Max and Sample wells: Add 10 μL of Enzyme (2×; 1.8 μM) prepared in RXN Buffer. For Min wells: Add 10 μL of RXN Buffer (No Enzyme). • 3) For all wells: Add 10 μL of Substrate (2×; 20 μM) prepared in diH2O+10% DMSO. • 4) Centrifuge plate for 1 minute at 1,000 rpm. • 5) Measure fluorescence every 5 minutes for 1-1.5 hours using the BMG POLARstar (ex 485 nm/em 520 nm; Gain=1015; 25 flashes). • 6) All volumes can be adjusted but the final DMSO concentration should be kept at about 6%.
Data Analysis: • 1) Calculate slopes and express as % Activity (Min wells=0%; Max wells=100%). • 2) Then, using Prism, calculate the IC50 values.

Data set [2] in a line: Plasma protein binding, human. It counts as in vitro ADME. From the text:
(§2) Plasma protein binding was a measure of a drug's efficiency to bind to the proteins within blood plasma. The less bound a drug is, the more efficiently it can traverse cell membranes or diffuse. […] In contrast, drugs that remain largely unbound in plasma are generally available for distribution to other organs and tissues.

Data set [3] in a line: Chemical stability in 1x PBS. In kind it is physicochemical.
The nature of data set [4]: Plasma protein binding, mouse. It counts as in vitro ADME. The note with it: read-out: Plasma Protein Binding (% Bound) (converted).
Text: as §2

The nature of the next data set: in vitro. The conditions noted are these: human.
The nature of data set [5]: Hepatic microsome stability, human. In kind it is in vitro ADME. The source says: The microsomal stability assay is commonly used to rank compounds according to their metabolic stability. This assay addresses the pharmacologic question of how long the parent compound will remain circulating in plasma within the body.
The test system of data set [6] is prostate cancer PC-3 cells. The data set is described as follows: De novo palmitate synthesis from 13C-glucose in whole cells (GC-MS). It counts as cell-based. The method, then: The ability of compounds to block biosynthesis of palmitate in whole cells (prostate cancer PC-3 cells) was measured by feeding cells isotopically labeled glucose (^13C-glucose) and measuring the incorporation of ^13C into palmitate by GC-MS.
Prostate cancer PC-3 cell were incubated with 20 μM of FASN inhibitors and labeled with [U-13C]-glucose for 24 h, pH 7.8. The incorporation of ^13C into palmitate from labeled glucose was determined by extracting fatty acids and resolving them by GC-MS. The mass distributions for fatty acid methyl esters for C16:0 (palmitate) were corrected for isotope natural abundance, and the corrected isotope patterns were used to calculate the labeling of acetyl-CoA in palmitate based on a binomial probability distribution of the incorporation of labeled acetyl units into the fatty acid chain.

Data set [7] in a line: Aqueous solubility in 1x PBS, pH 7.4. In kind it is physicochemical. The conditions noted are these: pH 7.4, aqueous buffer.
Another data set concerns the target T1, ACOT4 (Homo sapiens, UniProt Q8N9L9).
T1 sequence (Q8N9L9 1-421): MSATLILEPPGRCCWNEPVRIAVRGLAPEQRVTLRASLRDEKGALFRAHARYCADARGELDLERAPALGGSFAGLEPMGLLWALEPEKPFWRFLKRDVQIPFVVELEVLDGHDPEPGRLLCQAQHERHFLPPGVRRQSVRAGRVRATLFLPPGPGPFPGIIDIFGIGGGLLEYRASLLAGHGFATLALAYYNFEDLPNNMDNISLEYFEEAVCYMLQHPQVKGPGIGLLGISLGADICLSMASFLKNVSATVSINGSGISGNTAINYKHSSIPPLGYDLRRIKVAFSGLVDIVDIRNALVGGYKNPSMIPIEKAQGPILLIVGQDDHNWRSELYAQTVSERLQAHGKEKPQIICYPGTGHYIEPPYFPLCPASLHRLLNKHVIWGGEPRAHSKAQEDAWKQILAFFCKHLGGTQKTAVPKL
The data set is described as follows: FP-PEG-TAMRA labeling of recombinant ACOT4. It counts as binding. The note with it: recombinant enzyme, 20 μM final, pH 7.8. The method, then:
Additionally, studies were performed to test the selectivity of Compounds 1, 16, 22, and 37 for the FASN thioesterase over its most closely related human homolog, the enzyme called ACOT4 (see FIG. 3). Both proteins were mixed and pretreated with the compound (20 μM final, pH 7.8) before addition of the fluorescent activity probe FP-PEG-TAMRA. Respective fluorescence of the bands was detected on a Hitachi flatbed scanner and a greyscale version used for quantitative analysis using ImageJ. Recombinant forms of each enzyme were incubated with compound 16, compound 1, compound 37, and compound 22. FP-TAMRA was included in this mixture to label the active site of the FASN thioesterase and ACOT4. […] These findings further attest to the high degree of selectivity of compounds 1, 16, 37 and 22 for the FASN thioesterase.

In the next data set the target is T2, FASN (Homo sapiens, UniProt P49327).
T2 construct: lysates of the prostate tumor line (PC3), which expresses FASN; endogenous in cells; host or cells: PC-3 prostate tumour cells (whole cell lysate)
The data set is described as follows: Competition with activity-based probe FP-PEG-TAMRA in PC-3 whole cell lysate: FASN. It counts as binding. The note with it: PC-3 lysate, 20 μM final, pH 7.8. As for the experimental part:
as §1

T2 sequence (P49327 whole entry): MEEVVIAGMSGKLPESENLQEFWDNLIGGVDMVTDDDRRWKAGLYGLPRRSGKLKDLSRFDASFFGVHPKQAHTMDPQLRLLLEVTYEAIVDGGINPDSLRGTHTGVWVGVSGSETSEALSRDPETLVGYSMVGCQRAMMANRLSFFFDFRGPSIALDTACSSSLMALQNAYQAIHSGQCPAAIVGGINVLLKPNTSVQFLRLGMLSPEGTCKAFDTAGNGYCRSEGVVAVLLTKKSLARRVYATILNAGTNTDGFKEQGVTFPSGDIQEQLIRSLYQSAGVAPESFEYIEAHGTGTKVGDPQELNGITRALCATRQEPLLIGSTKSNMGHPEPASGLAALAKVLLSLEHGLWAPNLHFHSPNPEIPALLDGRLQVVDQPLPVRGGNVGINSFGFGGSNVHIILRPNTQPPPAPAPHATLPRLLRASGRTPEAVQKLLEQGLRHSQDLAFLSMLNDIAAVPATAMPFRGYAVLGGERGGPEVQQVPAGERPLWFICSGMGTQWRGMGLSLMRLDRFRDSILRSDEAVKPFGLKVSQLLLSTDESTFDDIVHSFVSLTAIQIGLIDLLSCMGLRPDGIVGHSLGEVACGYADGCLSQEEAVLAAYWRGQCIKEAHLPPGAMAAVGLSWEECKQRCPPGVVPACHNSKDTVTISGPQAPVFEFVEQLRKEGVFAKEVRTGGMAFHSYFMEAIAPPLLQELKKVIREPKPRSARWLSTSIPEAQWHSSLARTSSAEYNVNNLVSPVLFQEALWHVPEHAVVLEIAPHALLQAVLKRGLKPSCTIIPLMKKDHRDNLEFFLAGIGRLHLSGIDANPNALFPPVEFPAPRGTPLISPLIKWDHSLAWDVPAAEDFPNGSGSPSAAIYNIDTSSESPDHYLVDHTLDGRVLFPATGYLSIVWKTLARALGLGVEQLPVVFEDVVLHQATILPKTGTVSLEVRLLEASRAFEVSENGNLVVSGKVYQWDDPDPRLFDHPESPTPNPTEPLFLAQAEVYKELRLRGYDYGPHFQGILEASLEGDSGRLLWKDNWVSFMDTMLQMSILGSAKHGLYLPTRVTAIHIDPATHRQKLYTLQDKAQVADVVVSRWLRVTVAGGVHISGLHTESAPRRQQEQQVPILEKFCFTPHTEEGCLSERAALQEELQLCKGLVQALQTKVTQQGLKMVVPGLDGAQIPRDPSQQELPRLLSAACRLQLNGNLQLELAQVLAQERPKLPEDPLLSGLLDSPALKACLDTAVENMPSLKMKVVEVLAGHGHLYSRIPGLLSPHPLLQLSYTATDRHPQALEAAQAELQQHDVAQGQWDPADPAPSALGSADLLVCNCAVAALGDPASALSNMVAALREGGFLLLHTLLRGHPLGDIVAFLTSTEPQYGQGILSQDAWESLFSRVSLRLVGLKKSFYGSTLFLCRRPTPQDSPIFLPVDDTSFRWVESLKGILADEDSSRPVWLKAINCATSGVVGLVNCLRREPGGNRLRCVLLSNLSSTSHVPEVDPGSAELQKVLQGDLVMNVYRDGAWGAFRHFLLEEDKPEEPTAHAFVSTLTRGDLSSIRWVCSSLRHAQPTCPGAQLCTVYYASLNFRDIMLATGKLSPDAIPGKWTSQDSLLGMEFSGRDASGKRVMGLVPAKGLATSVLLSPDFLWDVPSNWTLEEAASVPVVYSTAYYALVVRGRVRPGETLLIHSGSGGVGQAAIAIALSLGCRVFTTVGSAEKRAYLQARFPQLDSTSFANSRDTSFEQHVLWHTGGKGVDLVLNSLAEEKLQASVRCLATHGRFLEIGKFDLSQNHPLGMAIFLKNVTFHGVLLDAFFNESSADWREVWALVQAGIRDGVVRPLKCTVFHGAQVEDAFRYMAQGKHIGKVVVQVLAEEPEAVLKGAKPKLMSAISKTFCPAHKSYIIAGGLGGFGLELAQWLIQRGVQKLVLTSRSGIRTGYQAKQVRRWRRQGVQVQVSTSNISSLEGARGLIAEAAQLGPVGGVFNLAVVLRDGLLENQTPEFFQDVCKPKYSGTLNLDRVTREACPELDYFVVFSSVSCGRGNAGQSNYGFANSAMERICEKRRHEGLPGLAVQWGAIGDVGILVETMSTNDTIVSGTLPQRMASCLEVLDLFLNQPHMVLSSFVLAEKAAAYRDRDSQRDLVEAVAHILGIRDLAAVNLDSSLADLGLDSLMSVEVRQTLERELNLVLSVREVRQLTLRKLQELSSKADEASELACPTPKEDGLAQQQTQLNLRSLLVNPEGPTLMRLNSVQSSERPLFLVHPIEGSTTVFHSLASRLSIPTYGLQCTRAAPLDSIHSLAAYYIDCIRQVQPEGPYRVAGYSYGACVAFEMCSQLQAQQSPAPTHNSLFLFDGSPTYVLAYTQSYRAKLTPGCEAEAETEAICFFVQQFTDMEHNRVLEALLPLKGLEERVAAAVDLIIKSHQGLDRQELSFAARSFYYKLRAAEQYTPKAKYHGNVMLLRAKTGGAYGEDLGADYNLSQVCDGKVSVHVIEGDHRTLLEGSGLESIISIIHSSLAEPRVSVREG
Sequence of FASN-TE (P49327 2207-2511 limits assumed): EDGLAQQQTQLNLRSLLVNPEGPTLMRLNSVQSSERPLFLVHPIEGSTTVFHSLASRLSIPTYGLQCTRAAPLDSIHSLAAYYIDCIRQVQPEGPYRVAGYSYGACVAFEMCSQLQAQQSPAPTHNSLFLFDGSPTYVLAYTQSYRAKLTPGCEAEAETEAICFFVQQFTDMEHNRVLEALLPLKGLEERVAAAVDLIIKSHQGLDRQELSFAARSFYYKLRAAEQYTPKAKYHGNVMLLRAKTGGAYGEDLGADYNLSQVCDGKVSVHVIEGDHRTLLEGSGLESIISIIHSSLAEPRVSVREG

Consider `CCC(CC)C(=O)Nc1nc(-c2ccc(S(=O)(=O)N3CCOCC3)cc2)cs1` [Compound 16, 2-Ethyl-N-(4-(4-(morpholinosulfonyl)phenyl)thiazol-2-yl)butanamide], for which, in data set [1], the “competition for activity based labeling of other serine hydrolases” value is on record as “no competition”. The IC50 (usually the concentration at which inhibition is half-maximal) at FASN-TE worked out at 334 nM. Moreover, the fraction unbound at 1 μM is 0.034 in data set [2] (plasma, Human, 1 μM, read-out: Plasma Protein Binding (% Bound) (converted)) and 0.0381 in data set [4] (1 μM). The fraction unbound at 10 μM in data set [2] (plasma, Human, 10 μM, read-out: Plasma Protein Binding (% Bound) (converted)) was 0.0253; in [4] (10 μM) it was 0.0337. Also, in data set [2] (species not given), the “plasma protein binding” value is “highly plasma protein bound”. For the same compound, the “Chemical Stability in 1x PBS pH 7.4 (% remaining after 48 hrs)” value in [3] (1x PBS pH 7.4, 48 hrs) is recorded as 100/100%. In data set [3] (with 50% ACN, 48 hrs), the “Chemical Stability in 1x PBS pH 7.4 with 50% ACN (% remaining after 48 hrs)” value was 100/100%. The CC50 in “in vitro” is greater than 50000 nM. Moreover, in [5] (Human, 1 hr), the “Hepatic Microsome Stability (% Remaining at 1 hr)” value is reported as 4.93%. Moreover, the “liver microsome stability” value in [5] (human liver microsomes) is listed as “poor stability”. Besides, the “inhibition of palmitate synthesis in whole cells” value in data set [6] is “inhibitory activity”. Moreover, in data set [6] (20 μM, [U-13C]-glucose 24 h, pH 7.8, relative to DMSO control), the “de novo palmitate synthesis/DMSO (%)” value worked out at 50%. For the same compound, the solubility (as a rule, the dissolved amount per volume that the medium holds) in data set [7] is 0.02 µg/mL and 0.05 µM. For the same compound, the “activity labeling of ACOT4” value at ACOT4 is “without effect”. Moreover, the “inhibition of FASN (blocking of FP-TAMRA binding)” value at FASN is recorded as “showed inhibition of FASN”.
